Biological target: T1, EP4 receptor (Homo sapiens, UniProt P35408)
T1 construct: expressed in transfected cells; host or cells: Flp-In CHO cells (Flpin-CHO-EP4)
Experiment: Antagonist activity against EP4 receptor by cAMP assay
Format: cell-based
Details: Flpin-CHO-EP4 cells, PGE2 stimulation, cAMP readout; starting concentration 5 μM, dilution factor 4
Experimental: Eu-CAMP tracer (1/50) was diluted with a lysis buffer and 10 μL was added to per well of the detection plate. Ulight-anti-CAMP (1/150) was diluted with the lysis buffer and 10 μL was added to per well of the detection plate, and incubated at room temperature for 1 h.

T1 sequence (P35408 whole entry): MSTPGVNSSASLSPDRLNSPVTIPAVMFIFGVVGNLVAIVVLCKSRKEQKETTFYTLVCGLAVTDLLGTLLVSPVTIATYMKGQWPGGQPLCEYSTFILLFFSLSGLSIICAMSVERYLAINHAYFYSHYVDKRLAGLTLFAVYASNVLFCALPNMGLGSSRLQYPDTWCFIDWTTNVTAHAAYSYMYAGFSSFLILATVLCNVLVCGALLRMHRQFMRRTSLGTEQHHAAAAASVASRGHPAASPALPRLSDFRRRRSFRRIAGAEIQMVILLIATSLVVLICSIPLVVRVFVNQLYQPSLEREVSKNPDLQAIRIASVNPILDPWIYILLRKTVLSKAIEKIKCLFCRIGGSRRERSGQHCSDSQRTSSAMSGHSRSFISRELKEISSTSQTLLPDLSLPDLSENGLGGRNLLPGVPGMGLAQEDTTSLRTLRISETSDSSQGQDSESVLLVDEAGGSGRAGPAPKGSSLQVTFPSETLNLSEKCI

IC50: 6.59 nM
SMILES: C[C@H](NC(=O)c1c(C(F)F)nn(C)c1Oc1cccc(S(F)(F)(F)(F)F)c1)c1ccc(C(=O)O)cc1 [Example 1, 4-(1-(3-(difluoromethyl)-1-methyl-5-(3-(pentafluorothio)phenoxy)-1H-pyrazole-4-carboxamido)ethyl)benzoic acid]

Source: US12668576B2, “Pyrazolamide derivative, preparation method therefor, and application thereof” (SHENZHEN ZHONGGE BIOLOGICAL TECHNOLOGY CO., LTD., priority 2021, dated 2026)
